Patent publication US6828450B2, “Triptycene analogs” (Kansas State University Research Foundation, priority 2000, dated 2004)
Read-outs that look alike come from different tables or passages of the source.

Key:
[1] = system: Plasmodium falciparum 3D7; assay: Antimalarial activity, inhibition of Plasmodium falciparum 3D7; assay type: cell-based; settings: malaria strain 3D7
[2] = system: HL-60-R8 cells; assay: DNA cleavage in HL-60-R8 cells; assay type: cell-based, human; settings: HL-60-R8, 24 h
Experimental: FIG. 23. Comparison of the concentration-dependent inductions of DNA cleavage by DAU (open symbols in A) and TT2 (closed symbols in B) at 24 h in HL-60-S (circles), HL-60-RV (squares) and HL-60-R8 (triangles) cells containing ^3H-prelabeled DNA in vitro. Results are expressed as [cpm in supernatant/cpm in supernatant+pellet]×100 at 24 h. For untreated controls (14.7±1.7% DNA fragmentation, striped areas), the supernatant (DNA fragments) is 12,815±1,358 cpm and the pellet (intact DNA) is 74,406±9,078 cpm.
The MDR HL-60-RV and HL-60-R8 cells were developed in Melvin S. Center's laboratory (Kansas State University) and similarly maintained in RPMI 1640 medium in the absence of drugs (Marsh W, et al, Cancer Res 46: 4053-4057, 1986; McGrath T et al, and Center M S: Biochem Biophys Res Commun 145: 1171-1176, 1987; Marsh W and Center M S: Cancer Res 47: 5080-5086, 1987; McGrath T, et al, Biochem Pharmacol 38: 3611-3619, 1989; Marquardt D, et al, Cancer Res 50: 1426-1430, 1990; Marquardt D and Center M S: J Natl Cancer Inst 83: 1089-1109, 1991; Krishnamachary N and Center M S; Cancer Res 53: 3658-3661, 1993). Every 4 weeks, these HL-60-RV and HL-60-R8 sublines were exposed to 41 nM DAU for 48 h to stabilize their MDR phenotype. […] RFs were determined by dividing the IC50 of the MDR cells by that of the sensitive WT parent cell line. […]

[3] = system: HL-60-RV cells; assay: Nucleoside transport in HL-60-RV cells; assay type: cell-based, human; settings: for IC50: 15-min preincubation, 30 s
Text: FIG. 15. Comparison of the concentration-dependent inhibitions of the cellular transport of purine (A) and pyrimidine (B) nucleosides by DAU (open symbols) and TT2 (closed symbols) in HL-60-S (circles), HL-60-RV (squares) and HL-60-R8 (triangles) cells in vitro. Results are expressed as % of ^3H-adenosine (26,032±2,239 cpm, 100±9%, striped area in A) and ^3H-thymidine (17,934±1,398 cpm, 100±8%, striped area in B) transported into vehicle-treated control cells over 30 s.
The MDR HL-60-RV and HL-60-R8 cells were developed in Melvin S. Center's laboratory (Kansas State University) and similarly maintained in RPMI 1640 medium in the absence of drugs (Marsh W, et al, Cancer Res 46: 4053-4057, 1986; McGrath T et al, and Center M S: Biochem Biophys Res Commun 145: 1171-1176, 1987; Marsh W and Center M S: Cancer Res 47: 5080-5086, 1987; McGrath T, et al, Biochem Pharmacol 38: 3611-3619, 1989; Marquardt D, et al, Cancer Res 50: 1426-1430, 1990; Marquardt D and Center M S: J Natl Cancer Inst 83: 1089-1109, 1991; Krishnamachary N and Center M S; Cancer Res 53: 3658-3661, 1993). Every 4 weeks, these HL-60-RV and HL-60-R8 sublines were exposed to 41 nM DAU for 48 h to stabilize their MDR phenotype. This concentration of DAU, which is not cytotoxic to MDR HL-60 sublines, was removed from the culture medium at least 48 h before experimentation. […] RFs were determined by dividing the IC50 of the MDR cells by that of the sensitive WT parent cell line.
L1210 cells (about 1.5×10^6 cells/0.5 ml) were preincubated for 15 min at 37° C. in the presence or absence of TTs and then exposed to 1 μCi of ^3H-thymidine for only 30 sec to assess the cellular uptake of nucleoside over such very short period of time. HL-60-S, HL-60-RV and HL-60-R8 cells (1.2×10^6 cells/0.5 ml) were preincubated for 15 min at 37° C. in the presence or absence (control) of drugs and then exposed to 1 μCi of [2,8-^3H]adenosine (30 Ci/mmol; American Radiolabeled Chemicals, St. Louis, Mo.) or [methyl-^3H]thymidine (50 Ci/mmol; Amersham, Arlington Heights, Ill.) for only 30 s to, respectively, assess the cellular uptake of purine and pyrimidine nucleosides over such very short period of time Reactions were diluted with 2 ml of ice-cold Ca^2+/Mg^2+-free Dulbecco's phosphate buffered saline (PBS) and the unincorporated radiolabel was removed by centrifugation at 200×g for 10 min. […] Cell lysates were mixed with 9 ml of Bio-Safe II (Researeh Products International) and counted to estimate the cellular uptake of ^3H-thymidine. Drug inhibition was expressed as % of ^3H-thymidine or ^3H-adenosine transported into vehicle-treated control cells over similar 30-sec period.

IC50 [1] [µM]	IC50 ([3]; purine nucleoside, read-out: IC50, cellular transport of 3H-adenosine in HL-60-RV cells) [µM]	IC50 ([3]; pyrimidine nucleoside, read-out: IC50, cellular transport of 3H-thymidine in HL-60-RV cells) [µM]	SMILES	reduction of the peak of maximal DNA cleavage relative to HL-60-S cells [2] [%]	RFs, nucleoside transport ([3]; HL-60-RV and HL-60-R8 vs HL-60-S, adenosine and thymidine)	effect on nucleoside transport in the two MDR sublines ([3]; HL-60-RV and HL-60-R8)
5.6			COC1=C(Br)C(=O)C2=C(C1=O)C1C3=C(C(=O)C=C(N(C)C)C3=O)C2c2ccccc21 (centres unmarked) [TT16, 2-Bromo-3-methoxy-6-(dimethylamino)-9,10-dihydro-9,10-[1′,2′]benzenoanthracene-1,4,5,8-tetraone]			
8	3.2	2	COC1=CC(=O)C2=C(C1=O)C1C3=C(C(=O)C=CC3=O)C2c2ccccc21 (centres unmarked) [TT2, 2-Methoxy-9,10-dihydro-9,10-[1′,2′]benzenoanthracene-1,4,5,8-tetraone]	35	1.0-1.2	
			COc1cccc2c1C(=O)c1c(O)c3c(c(O)c1C2=O)C[C@@](O)(C(C)=O)C[C@@H]3O[C@H]1C[C@H](N)[C@H](O)[C@H](C)O1 [DAU, daunomycin, reference compound]	60		unable
